Drawing on ChEMBL document CHEMBL4828718, “Synthesis and Antifungal Activity Evaluation of Phloeodictine Analogues” (J Nat Prod, 2021), this text covers MFC, MIC and IC50 for 13 compounds.

Each structure is given as a SMILES string. Converted amounts (≈) assume the structure as drawn. The source made the active and inactive calls. No cut-off for these calls is given here.

For assay [1], the system named is Nakaseomyces glabratus. The experiment in a line: Fungicidal activity against Candida glabrata ATCC 90030 assessed as fungal growth inhibition incubated for 18 to 24 hrs by alamar blue assay. The assay is classed as functional.
In assay [2] the test system is Aspergillus fumigatus. Nature of the assay: Antifungal activity against Aspergillus fumigatus ATCC 90906 assessed as fungal growth inhibition incubated for 72 hrs by alamar blue assay. The assay is classed as functional.
Assay [3] concerns Pichia kudriavzevii. The experiment in a line: Antifungal activity against Candida krusei ATCC 6258 assessed as fungal growth inhibition incubated for 18 to 24 hrs by alamar blue assay. The class given is functional.
Assay [4] concerns Nakaseomyces glabratus. The experiment in a line: Antifungal activity against Candida glabrata ATCC 90030 assessed as fungal growth inhibition incubated for 18 to 24 hrs by alamar blue assay. The assay is classed as functional.
The test system of assay [5] is Vero. Nature of the assay: Cytotoxicity against African green monkey Vero cells assessed as reduction in cell viability incubated for 48 hrs by neutral red dye based assay. Also on record: species or system Chlorocebus sabaeus. The settings on record: Chlorocebus sabaeus, Vero, 48 h.
Assay [6] relates to Cryptococcus neoformans. Nature of the assay: Antifungal activity against Cryptococcus neoformans ATCC 90113 assessed as fungal growth inhibition incubated for 72 hrs by alamar blue assay. The assay is classed as functional.
Assay [7] has as its system Aspergillus fumigatus. Nature of the assay: Fungicidal activity against Aspergillus fumigatus ATCC 90906 assessed as fungal growth inhibition incubated for 72 hrs by alamar blue assay. The assay is classed as functional.
Assay [8] relates to Candida albicans. The experiment in a line: Antifungal activity against Candida albicans ATCC 90028 assessed as fungal growth inhibition incubated for 18 to 24 hrs by alamar blue assay. The assay is classed as functional.
Assay [9] concerns Candida albicans. The experiment in a line: Fungicidal activity against Candida albicans ATCC 90028 assessed as fungal growth inhibition incubated for 18 to 24 hrs by alamar blue assay. The assay is classed as functional.
Assay [10] deals with Pichia kudriavzevii. Nature of the assay: Fungicidal activity against Candida krusei ATCC 6258 assessed as fungal growth inhibition incubated for 18 to 24 hrs by alamar blue assay. The assay is classed as functional.
In assay [11] the test system is Cryptococcus neoformans. The experiment in a line: Fungicidal activity against Cryptococcus neoformans ATCC 90113 assessed as fungal growth inhibition incubated for 72 hrs by alamar blue assay. The class given is functional.
The mark [12] stands for this setting: Nakaseomyces glabratus, ATCC 90030, time 18-24 hrs, read-out: MFC.
Setting [13] is: Aspergillus fumigatus, ATCC 90906, 72 h, read-out: MIC.
Setting [14] is: Pichia kudriavzevii, ATCC 6258, time 18-24 hrs, read-out: MIC.
Where [15] appears, read: Nakaseomyces glabratus, ATCC 90030, time 18-24 hrs, read-out: MIC.
The mark [16] stands for this setting: Cryptococcus neoformans, ATCC 90113, 72 h, read-out: MIC.
The mark [17] stands for this setting: Aspergillus fumigatus, ATCC 90906, 72 h, read-out: MFC.
Where [18] appears, read: Candida albicans, ATCC 90028, time 18-24 hrs, read-out: MIC.
Setting [19] is: Candida albicans, ATCC 90028, time 18-24 hrs, read-out: MFC.
Where [20] appears, read: Pichia kudriavzevii, ATCC 6258, time 18-24 hrs, read-out: MFC.
The mark [21] stands for this setting: Cryptococcus neoformans, ATCC 90113, 72 h, read-out: MFC.

As to `CCCCCCCCCCCCCCC1(O)C(C)=C(C)C2=[N+](C/C=C/c3ccccc3)CCCN21` (stereo not drawn), the MFC stood at 4.1 µM in assay [1] (setting [12]); 5.9 µM in [7] (setting [17]); 3.8 µM in [9] (setting [19]); 3.8 µM in assay [10] (setting [20]); 4.1 µM in assay [11] (setting [21]). The MIC came to 4.5 µM in [2] (setting [13]); 3 µM in [3] (setting [14]); 2.7 µM in assay [4] (setting [15]); 1.4 µM in [6] (setting [16]); 3.8 µM in assay [8] (setting [18]). Moreover, the IC50 in assay [5] was 38 µM.

`CCCCCCCCCCCCCCC1(O)C(C)=C(C)C2=[N+](Cc3ccc(F)cc3F)CCCN21` (stereo not drawn): the MFC in [1] (setting [12]) worked out at 1.8 µM; in assay [7] (setting [17]), 3.7 µM; in assay [9] (setting [19]), 3.7 µM; in assay [10] (setting [20]), 1.8 µM; in [11] (setting [21]), 1.1 µM. Moreover, the MIC in assay [2] (setting [13]) came out at 3 µM; in [3] (setting [14]), 1.8 µM; in assay [4] (setting [15]), 1.8 µM; in assay [6] (setting [16]) it was 0.88 µM; in assay [8] (setting [18]) it was 3.7 µM. Moreover, the IC50 in assay [5] worked out at 28 µM.

Consider `CCCCCCCCCCCCCCc1c(C)c(C)cn1CCCNCc1ccccc1`, for which the MFC entry in assay [1] (time 18-24 hrs), in assay [7], in assay [9] (time 18-24 hrs), in assay [10] (time 18-24 hrs) and in [11] was “inactive” in each case. Further, the MIC result in assay [2], in assay [3] (time 18-24 hrs), in assay [4] (time 18-24 hrs), in assay [6] and in [8] (time 18-24 hrs) was “inactive” throughout. Further, the IC50 in [5] turned out to be 42 µM.

`CCCCCCCCCCCCCCc1c(C)c(C)cn1CCCNC`: the MFC came to 6.9 µM (≈ 2.5 µg/mL) in [1] (setting [12]); 23 µM (≈ 8.34 µg/mL) in [7] (setting [17]); 12 µM (≈ 4.35 µg/mL) in [9] (setting [19]); 6.9 µM (≈ 2.5 µg/mL) in [10] (setting [20]); 6.9 µM (≈ 2.5 µg/mL) in [11] (setting [21]). Also, the MIC in assay [2] (setting [13]) came out at 21 µM (≈ 7.62 µg/mL); in [3] (setting [14]), 6.9 µM (≈ 2.5 µg/mL); in assay [4] (setting [15]), 6.9 µM (≈ 2.5 µg/mL); in [6] (setting [16]), 3.3 µM (≈ 1.2 µg/mL); in assay [8] (setting [18]), 12 µM (≈ 4.35 µg/mL). For the same compound, the IC50 in assay [5] is 35 µM.

For `CCCCCCCCCCCCCCC1(O)C=CC2=[N+](C)CCCN21` (stereo not drawn), the MFC in [1] (setting [12]) amounted to 1.7 µM; in assay [7] (setting [17]), 4.4 µM; in assay [9] (setting [19]) it was 5.2 µM; in [10] (setting [20]), 2.1 µM; in assay [11] (setting [21]) it was 0.21 µM. Further, the MIC was 4.4 µM in assay [2] (setting [13]); 2.1 µM in [3] (setting [14]); 1.7 µM in assay [4] (setting [15]); 0.21 µM in assay [6] (setting [16]); 5.2 µM in assay [8] (setting [18]). Further, the IC50 in [5] is 17 µM.

On to `CCCCCCCCCCCCCCC1(O)C(C)=C(C)C2=[N+](Cc3cnnn3Cc3ccccc3)CCCN21` (stereo not drawn), for which the MFC in [1] (setting [12]) worked out at 4.7 µM; in [7] (setting [17]) it was 6.8 µM; in [9] (setting [19]) it was 6.8 µM; in assay [10] (setting [20]), 2.8 µM; in [11] (setting [21]), 2 µM. Further, the MIC came to 6.8 µM in [2] (setting [13]); 2.8 µM in assay [3] (setting [14]); 3.4 µM in [4] (setting [15]); 1.3 µM in assay [6] (setting [16]); 5.4 µM in assay [8] (setting [18]). In addition, the IC50 in assay [5] is above 40 µM.

As to `CCCCCCCCCCCCCCC1(O)C(C)=C(C)C2=[N+](CC(=O)NCCOCCOCCOCCNC(=O)CCCC[C@@H]3SC[C@@H]4NC(=O)N[C@@H]43)CCCN21` (stereo partly drawn), the MFC entry in [1] (time 18-24 hrs), in assay [7], in assay [9] (time 18-24 hrs) and in assay [10] (time 18-24 hrs) was “inactive” throughout. For the same compound, the MIC result in assay [2], in assay [3] (time 18-24 hrs), in assay [4] (time 18-24 hrs) and in [8] (time 18-24 hrs) was “inactive” each time. Besides, the half-maximal inhibitory concentration (IC50) in assay [5] was above 28 µM. Also, the MIC in [6] (setting [16]) turned out to be 3.7 µM. For the same compound, in assay [11] (setting [21]), the MFC came out at 4.5 µM.

On to `CCCCCCCCCCCCCCC1(O)C(C)=C(C)C2=[N+](C)CCCN21` (stereo not drawn), for which the MFC was found to be 5 µM in [1] (setting [12]); 5 µM in assay [7] (setting [17]); 6.5 µM in assay [9] (setting [19]); 2 µM in [10] (setting [20]); 2.4 µM in assay [11] (setting [21]). Besides, the MIC in [2] (setting [13]) worked out at 5 µM; in assay [3] (setting [14]) it was 2 µM; in [4] (setting [15]) it was 4.2 µM; in assay [6] (setting [16]), 0.99 µM; in assay [8] (setting [18]) it was 5 µM. Besides, the IC50 in assay [5] turned out to be 39 µM.

`CCCCCCCCCCCCCCC1(O)C(C)=C(C)C2=[N+](CC(=O)c3cccs3)CCCN21` (stereo not drawn): the MFC came to 5.1 µM in assay [1] (setting [12]); 8.8 µM in assay [7] (setting [17]); 7.4 µM in assay [9] (setting [19]); 5.1 µM in assay [10] (setting [20]); 12 µM in assay [11] (setting [21]). The MIC came out at 8.8 µM in [2] (setting [13]); 5.1 µM in [3] (setting [14]); 5.1 µM in [4] (setting [15]); 12 µM in [6] (setting [16]); 7.4 µM in assay [8] (setting [18]). Further, in assay [5], the IC50 was found to be 27 µM.

As to `C[C@@H]1[C@H](O)[C@@H](C)/C=C/C=C/C=C/C=C/C=C/C=C/C=C/[C@H](O[C@@H]2O[C@H](C)[C@@H](O)[C@H](N)[C@@H]2O)C[C@@H]2O[C@](O)(C[C@@H](O)C[C@@H](O)[C@H](O)CC[C@@H](O)C[C@@H](O)CC(=O)O[C@H]1C)C[C@H](O)[C@H]2C(=O)O` [AMPHOTERICIN B], the MFC in assay [1] (setting [12]) amounted to 0.65 µM (≈ 0.601 µg/mL); in assay [7] (setting [17]) it was 4 µM (≈ 3.7 µg/mL); in [9] (setting [19]), 0.97 µM (≈ 0.896 µg/mL); in assay [10] (setting [20]), 1.3 µM (≈ 1.2 µg/mL); in assay [11] (setting [21]), 0.65 µM (≈ 0.601 µg/mL). The MIC in assay [2] (setting [13]) is 2.3 µM (≈ 2.13 µg/mL); in assay [3] (setting [14]) it was 1.3 µM (≈ 1.2 µg/mL); in assay [4] (setting [15]) it was 0.65 µM (≈ 0.601 µg/mL); in assay [6] (setting [16]), 0.65 µM (≈ 0.601 µg/mL); in assay [8] (setting [18]) it was 0.77 µM (≈ 0.712 µg/mL). Moreover, in assay [5], the IC50 stood at 6.8 µM.

Take `CCCCCCCCCCCCCCC1(O)C(C)=C(C)C2=[N+](Cc3ccc([N+](=O)[O-])cc3)CCCN21` (stereo not drawn): the MFC came to 2.1 µM in assay [1] (setting [12]); 5 µM in assay [7] (setting [17]); 4.3 µM in assay [9] (setting [19]); 1.7 µM in assay [10] (setting [20]); 1.4 µM in assay [11] (setting [21]). Also, the MIC in [2] (setting [13]) stood at 5 µM; in assay [3] (setting [14]), 1.7 µM; in [4] (setting [15]), 2.1 µM; in assay [6] (setting [16]), 1.4 µM; in [8] (setting [18]) it was 4.3 µM. The IC50 in [5] is 36 µM.

Take `CCCCCCCCCCCCCCC1(O)C(C)=C(C)C2=[N+](Cc3cc(C(F)(F)F)cc(C(F)(F)F)c3)CCCN21` (stereo not drawn): the MFC in assay [1] (setting [12]) is 2.5 µM; in assay [10] (setting [20]), 3.7 µM; in [11] (setting [21]), 2.5 µM. The MIC result in assay [2] is “inactive”. Moreover, the MIC in [3] (setting [14]) turned out to be 3.7 µM; in [4] (setting [15]) it was 2.5 µM; in assay [6] (setting [16]), 1.8 µM; in assay [8] (setting [18]) it was 30 µM. Further, the IC50 in assay [5] is above 37 µM. The MFC entry in assay [7] and in assay [9] (time 18-24 hrs) was “inactive” each time.

Consider `CCCCCCCCCCCCCCC1(O)C(C)=C(C)C2=[N+](Cc3ccc4ccccc4c3)CCCN21` (stereo not drawn), for which the MFC result in [1] (time 18-24 hrs), in assay [7], in assay [9] (time 18-24 hrs) and in assay [10] (time 18-24 hrs) was “inactive” throughout. Besides, the MIC entry in assay [2], in assay [3] (time 18-24 hrs), in [4] (time 18-24 hrs) and in [8] (time 18-24 hrs) was “inactive” in each case. Also, the IC50 in [5] worked out at 42 µM. The MIC in [6] (setting [16]) amounted to 3.9 µM. Besides, in [11] (setting [21]), the MFC was 12 µM.
